Experimental data taken from article PMC6979384, “Characterization of the plant homeodomain (PHD) reader family for their histone tail interactions” (Epigenetics & Chromatin, 2020).

Legend:
Assay in all cases: Histone peptide microarray
Assay type in all cases: binding, human
Settings in all cases: sheet "Array Heatmap"; GST-tagged reader; histone peptide array, total n = 4
KDM7A = test system: KDM7A
Outline: (§1)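 Readout is array binding signal, reported as the mean and standard deviation over four replicates. Each purified GST-fused PHD domain was incubated at 0.5 μM with a library of 293 modified histone peptides.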

PHF23 = test system: PHF23
Outline: as §1

DIDO1 = test system: DIDO1
Outline: as §1

KDM5B (1) = test system: KDM5B (1)
Outline: as §1

KDM5A (3) = test system: KDM5A (3)
Outline: as §1

PHF2 = test system: PHF2
Outline: as §1

AIRE (PP) = test system: AIRE (PP)
Outline: as §1

TRIM66 (PB) = test system: TRIM66 (PB)
Outline: as §1

TAF3 = test system: TAF3
Outline: as §1

KDM5B (3) = test system: KDM5B (3)
Outline: as §1

ING3 = test system: ING3
Outline: as §1

DPF2 (PPC2W2) = test system: DPF2 (PPC2W2)
Outline: as §1

KDM5A (1) = test system: KDM5A (1)
Outline: as §1

RAG2 = test system: RAG2
Outline: as §1

MORC3 (CW) = test system: MORC3 (CW)
Outline: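 Purified PHD finger domains fused to GST are screened against 293 synthetic histone peptides bearing one or several post-translational modifications. The protein is used at 0.5 μM, and the signal from four replicate arrays is averaged, with standard deviation given.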

BPTF (PB) = test system: BPTF (PB)
Outline: as §1

ING4 = test system: ING4
Outline: as §1

MLL5 = test system: MLL5
Outline: as §1

CHD5 (PPCC) = test system: CHD5 (PPCC)
Outline: as §1

ING1 = test system: ING1
Outline: as §1

PHF13 = test system: PHF13
Outline: as §1

PHRF1 (RP) = test system: PHRF1 (RP)
Outline: as §1

ING5 = test system: ING5
Outline: as §1

KDM4C (TTP) = test system: KDM4C (TTP)
Outline: as §1

SP140L = test system: SP140L
Outline: as §1

BAZ2B = test system: BAZ2B
Outline: as §1

PHF21A = test system: PHF21A
Outline: as §1

PHF8 = test system: PHF8
Outline: as §1

CHD4 (PPCC) = test system: CHD4 (PPCC)
Outline: as §1

ING2 = test system: ING2
Outline: as §1

CHD5 (PCC) = test system: CHD5 (PCC)
Outline: as §1

Substance | Array Heatmap signal, KDM7A (KDM7A) | Array Heatmap signal, PHF23 (PHF23) | Array Heatmap signal, DIDO1 (DIDO1) | Array Heatmap signal, KDM5B (1) (KDM5B (1)) | Array Heatmap signal, KDM5A (3) (KDM5A (3)) | Array Heatmap signal, PHF2 (PHF2) | Array Heatmap signal, AIRE (PP) (AIRE (PP)) | Array Heatmap signal, TRIM66 (PB) (TRIM66 (PB)) | Array Heatmap signal, TAF3 (TAF3) | Array Heatmap signal, KDM5B (3) (KDM5B (3)) | Array Heatmap signal, ING3 (ING3) | Array Heatmap signal, DPF2 (PPC2W2) (DPF2 (PPC2W2)) | Array Heatmap signal, KDM5A (1) (KDM5A (1)) | Array Heatmap signal, RAG2 (RAG2) | Array Heatmap signal, MORC3 (CW) (MORC3 (CW)) | Array Heatmap signal, BPTF (PB) (BPTF (PB)) | Array Heatmap signal, ING4 (ING4) | Array Heatmap signal, MLL5 (MLL5) | Array Heatmap signal, CHD5 (PPCC) (CHD5 (PPCC)) | Array Heatmap signal, ING1 (ING1) | further results
H3T6p + K9ac + K14ac + K18ac: H3 1-20 | 0.5379 | 0.5587 | 0.7306 | 0.6556 | 0.5014 | 0.4724 | 0.4905 | 0.6292 | 0.2973 | 0.5165 | 0.5178 | 0.6625 | 0.5024 | 0.2892 | 0.436 | 0.3772 | 0.4858 | 0.6174 | 0.5917 | 0.5258 | Array Heatmap signal, PHF13 (PHF13): 0.6581; Array Heatmap signal, PHRF1 (RP) (PHRF1 (RP)): 0.4494; Array Heatmap signal, ING5 (ING5): 0.4002; Array Heatmap signal, KDM4C (TTP) (KDM4C (TTP)): 0.5471; Array Heatmap signal, SP140L (SP140L): 0.3823; Array Heatmap signal, BAZ2B (BAZ2B): 0.5434; Array Heatmap signal, PHF21A (PHF21A): 0.4965; Array Heatmap signal, PHF8 (PHF8): 0.3706; Array Heatmap signal, CHD4 (PPCC) (CHD4 (PPCC)): 0.6105; Array Heatmap signal, ING2 (ING2): 0.6332; Array Heatmap signal, CHD5 (PCC) (CHD5 (PCC)): 0.8634
H3T6p: H3 1-20 [Peptide H3T6p] | 0.3941 | 0.6281 | 0.87 | 0.7098 | 0.5721 | 0.6372 | 0.5235 | 0.7122 | 0.311 | 0.5406 | 0.5766 | 0.8292 | 0.5432 | 0.3038 | 0.5106 | 0.4149 | 0.5347 | 0.6202 | 0.6595 | 0.6423 | Array Heatmap signal, PHF13 (PHF13): 0.7024; Array Heatmap signal, PHRF1 (RP) (PHRF1 (RP)): 0.6983; Array Heatmap signal, ING5 (ING5): 0.4298; Array Heatmap signal, KDM4C (TTP) (KDM4C (TTP)): 0.5715; Array Heatmap signal, SP140L (SP140L): 0.3962; Array Heatmap signal, BAZ2B (BAZ2B): 0.5538; Array Heatmap signal, PHF21A (PHF21A): 0.4969; Array Heatmap signal, PHF8 (PHF8): 0.4328; Array Heatmap signal, CHD4 (PPCC) (CHD4 (PPCC)): 0.6596; Array Heatmap signal, ING2 (ING2): 0.6272; Array Heatmap signal, CHD5 (PCC) (CHD5 (PCC)): 0.9074
